# Results: patent US20090022803A1, “Oral Formulations For Delivery of Catecholic Butanes Including Ndga Compounds” (priority 2005, published 2009)
# Where two headings read alike, the source gives them in different places.
# Format: physicochemical
# Description: A 10 mL solution of M4N at a concentration of about 10 mg/mL in 40% BP-β-CD was made as follows. About 10 mL of the 40% HP-β-CD solution were added to a glass beaker containing a stir bar. The beaker was placed on a magnetic plate and the stir bar was set to stir at medium speed. About […] of M4N were slowly added to the 40% HP-β-CD in the center of the beaker with the aid of a spatula. The M4N/40% HP-β-CD mixture was stirred for 2 hr or until all M4N was uniformly suspended without any clumps being present. The M4N/40% HP-β-CD mixture was optionally heated at 80° C. for about 30 min. (or longer if a larger volume of solution was desired, for example, 1 hr at 80° C. for 100 mL of the M4N/HP-β-CD mixture), or longer as needed to ensure complete dissolution of M4N. […] The final M4N/40% HP-β-CD solution was stored at room temperature and was kept protected from light. This process may be scaled up or down to obtain the requisite volume or concentration of M4N. Formulations containing M4N in other cyclodextrin solutions may be similarly made, such as, for example, by substituting HP-β-CD in the process described above with other cyclodextrins. […]
# A 10 mL solution of M4N at a concentration of about 10 mg/mL in 50% HP-β-CD/0.5% HPMC was made as follows. About 10 mL of the 50% HP-β-CD/0.5% HPMC solution were added to a glass beaker containing a stir bar. The beaker was placed on a magnetic plate and the stir bar was set to stir at medium speed. About 100 mg of M4N were slowly added to the 50% HP-β-CD/0.5% HPMC in the center of the beaker with the aid of a spatula. The M4N/50% HP-β-CD/0.5% HPMC mixture was stirred for 24 hr or until all M4N was uniformly suspended without any clumps being present. The M4N/50% HP-β-CD/0.5% HPMC mixture was heated at about 90° C. for about 30 min. (or longer if a larger volume of solution was desired, for example, 1 hr at 90° C. for 500 mL of the M4N/50% HP-β-CD/0.5% HPMC mixture), or longer as needed to ensure complete dissolution of M4N. […] The final M4N/50% HP-β-CD/0.5% HPMC solution was stored at room temperature and was kept protected from light.
# A 10 mL solution of M4N at a concentration of about 20 mg/mL in 5% EC (w/v) (the “EC formulation”) was made as follows. About 10 mL of 5% EC formulation, made as described above, were added to a glass beaker containing a stir bar. The beaker was placed on a magnetic plate and the stir bar was set to stir at medium speed, and covered with a round Teflon® cover. About 200 mg of M4N were slowly added to the 5% EC formulation in the center of the beaker with the aid of a spatula to prevent M4N from sticking to the beaker wall. The M4N/EC mixture was stirred for 2 hr or until all M4N had dissolved or was uniformly suspended without any clumps being present. The M4N/EC mixture was heated at about 60° C. for about 30 min. (or longer if a larger volume of solution was desired, for example, 1 hr at 60° C. for 500 mL of the M4N/EC mixture), or longer as needed to ensure complete dissolution of M4N. […] The final M4N/EC solution was stored at room temperature and was kept protected from light.
# A 10 mL solution of M4N at a concentration of about 50 mg/mL in sesame oil was made as follows. About 10 mL of sesame oil were added to a glass beaker containing a stir bar. The beaker was placed on a magnetic plate and the stir bar was set to stir at medium speed. About 500 mg of M4N were slowly added to the sesame oil in the center of the beaker with the aid of a spatula to prevent M4N from sticking to the beaker wall. The M4N/sesame oil mixture was stirred for about 2 hr or until all M4N had dissolved or was uniformly suspended without any clump being present. The M4N/sesame oil mixture was heated at about 60° C. for about 30 min. (or longer if a larger volume of solution was desired, for example, 1 hr at 60° C. for 500 mL of the M4N/sesame oil mixture), or longer as need to ensure complete dissolution of M4N. […]
# [1] = M4N 10 mg/mL in 32% HP-β-CD, 20% PEG 400 (v/v)
# [2] = M4N 10 mg/mL in 40% HP-β-CD, 1% PVP (w/v)
# [3] = M4N 10 mg/mL in 40% HP-β-CD, 5% PEG 400 (v/v)
# [4] = M4N 10 mg/mL in 50% HP-β-CD in saline
# [5] = M4N 10 mg/mL in 50% HP-β-CD, 0.5% HPMC
# [6] = M4N 10 mg/mL in 50% HP-β-CD, 1.25% PVP (w/v)
# [7] = M4N 12.5 mg/mL in 12.5% HP-β-CD, 50% PEG 300 (v/v)
# [8] = M4N 12.5 mg/mL in 12.5% HP-β-CD, 50% PEG 400 (v/v)
# [9] = M4N 12.5 mg/mL in 15% HP-β-CD, 50% PEG 300 (v/v)
# [10] = M4N 12.5 mg/mL in 15% HP-β-CD, 50% PEG 400 (v/v)
# [11] = M4N 12.5 mg/mL in 20% HP-β-CD, 50% PEG 300 (v/v)
# [12] = M4N 12.5 mg/mL in 20% HP-β-CD, 50% PEG 400 (v/v)
# [13] = M4N 12.5 mg/mL in 30% HP-β-CD, 25% PEG 400 (v/v)
# [14] = M4N 12.9 mg/mL in 23% HP-β-CD, 43% PEG 400 (v/v)
# [15] = M4N 12.9 mg/mL in 23% HP-β-CD, 43 PEG 300 (v/v)
# [16] = M4N 13.3 mg/mL in 27% HP-β-CD, 33% PEG 300 (v/v)
# Wherever Dissolution After Cool Down is given: key: N represents 'No'; Y represents 'Yes.'.
structure (smiles),measurement,setting,value
"COc1ccc(C[C@@H](C)[C@@H](C)Cc2ccc(OC)c(OC)c2)cc1OC [Formulation M4N, meso-1,4-bis(3,4-dimethoxyphenyl)-2,3-dimethylbutane]",Dissolution After Cool Down,[1],Y
same,Dissolution After Rotation,[1],N
same,Dissolution After Heating at X° C.,"M4N 10 mg/mL in 32% HP-β-CD, 20% PEG 400 (v/v), 60°",Y at 60°
same,Dissolution After Cool Down,M4N 10 mg/mL in 40% HP-β-CD,Y
same,Dissolution After Rotation,M4N 10 mg/mL in 40% HP-β-CD,N
same,Dissolution After Heating at X° C.,[2],N
same,Dissolution After Rotation,[2],N
same,Dissolution After Rotation,"M4N 10 mg/mL in 40% HP-β-CD, 2.5% PG (v/v)",N
same,Dissolution After Heating at X° C.,"M4N 10 mg/mL in 40% HP-β-CD, 2.5% PG (v/v), 80°",N at 80°
same,Dissolution After Cool Down,[3],N
same,Dissolution After Rotation,[3],N
same,Dissolution After Heating at X° C.,"M4N 10 mg/mL in 40% HP-β-CD, 5% PEG 400 (v/v), 60°",Y at 60°
same,Dissolution After Heating at X° C.,"M4N 10 mg/mL in 40% HP-β-CD, 80°",Y at 80°
same,Dissolution After Cool Down,M4N 10 mg/mL in 50% HP-β-CD,Y
same,Dissolution After Rotation,M4N 10 mg/mL in 50% HP-β-CD,N
same,Dissolution After Cool Down,[4],Y
same,Dissolution After Rotation,[4],N
same,Dissolution After Heating at X° C.,"M4N 10 mg/mL in 50% HP-β-CD in saline, 90°",Y at 90°
same,Dissolution After Cool-Down,[5],Y
same,Dissolution After Rotation,[5],N
same,Dissolution After Rotation,"M4N 10 mg/mL in 50% HP-β-CD, 0.5% HPMC, other experiment, no heat",Suspension
same,Dissolution After Heating at X° C.,[6],N
same,Dissolution After Rotation,[6],N
same,Dissolution After Heating at X° C.,"M4N 10 mg/mL in 50% HP-β-CD, 90°",Y at 90°
same,Dissolution After Cool-Down,M4N 10 mg/mL in Corn Oil,Y
same,Dissolution After Cool-Down,M4N 10 mg/mL in Mineral Oil,Y
same,Dissolution After Cool-Down,M4N 10 mg/mL in Soybean Oil,Y
same,Dissolution After Rotation,M4N 12 mg/mL in 40% HP-β-CD,N
same,Dissolution After Heating at X° C.,"M4N 12 mg/mL in 40% HP-β-CD, 80°",N at 80°
same,Dissolution After Cool Down,[7],Y
same,Dissolution After Rotation,[7],N
same,Dissolution After Heating at X° C.,"M4N 12.5 mg/mL in 12.5% HP-β-CD, 50% PEG 300 (v/v), 60°",Y at 60°
same,Dissolution After Cool Down,[8],Y
same,Dissolution After Rotation,[8],N
same,Dissolution After Heating at X° C.,"M4N 12.5 mg/mL in 12.5% HP-β-CD, 50% PEG 400 (v/v), 60°",Y at 60°
same,Dissolution After Cool Down,[9],Y
same,Dissolution After Rotation,[9],N
same,Dissolution After Heating at X° C.,"M4N 12.5 mg/mL in 15% HP-β-CD, 50% PEG 300 (v/v), 60°",Y at 60°
same,Dissolution After Cool Down,[10],Y
same,Dissolution After Rotation,[10],N
same,Dissolution After Heating at X° C.,"M4N 12.5 mg/mL in 15% HP-β-CD, 50% PEG 400 (v/v), 60°",Y at 60°
same,Dissolution After Cool Down,[11],Y
same,Dissolution After Rotation,[11],N
same,Dissolution After Heating at X° C.,"M4N 12.5 mg/mL in 20% HP-β-CD, 50% PEG 300 (v/v), 60°",Y at 60°
same,Dissolution After Cool Down,[12],Y
same,Dissolution After Rotation,[12],N
same,Dissolution After Heating at X° C.,"M4N 12.5 mg/mL in 20% HP-β-CD, 50% PEG 400 (v/v), 60°",Y at 60°
same,Dissolution After Cool Down,[13],Y
same,Dissolution After Rotation,[13],N
same,Dissolution After Heating at X° C.,"M4N 12.5 mg/mL in 30% HP-β-CD, 25% PEG 400 (v/v), 60°",Y at 60°
same,Dissolution After Cool Down,[14],Y
same,Dissolution After Rotation,[14],N
same,Dissolution After Heating at X° C.,"M4N 12.9 mg/mL in 23% HP-β-CD, 43% PEG 400 (v/v), 60° C.",Y at 60 °C
same,Dissolution After Cool Down,[15],Y
same,Dissolution After Rotation,[15],N
same,Dissolution After Heating at X° C.,"M4N 12.9 mg/mL in 23% HP-β-CD, 43 PEG 300 (v/v), 60°",Y at 60°
same,Dissolution After Cool Down,[16],Y
same,Dissolution After Rotation,[16],N
same,Dissolution After Heating at X° C.,"M4N 13.3 mg/mL in 27% HP-β-CD, 33% PEG 300 (v/v), 60°",Y at 60°
